These results are taken from patent US20140057940A1, “Methods for Treating or Preventing Cardiac and Neurological Disorders Using Chemokine Receptor Antagonists” (priority 2011, published 2014).

Assay [1] concerns isolated macaque cardiomyocytes. Kind of assay: Sarcomeric contraction of field-stimulated (1 Hz) isolated single cardiomyocytes. The assay is classed as cell-based. The source says: In addition to SIV, the chemokines CCL3, CCL4, and CCL5 can also bind to CCR5 and initiate signaling pathways. In order to evaluate the ability of CCL5 to alter sarcomeric contraction in a CCR5-dependent manner, isolated single cardiomyocytes were field stimulated (1 Hz) and sarcomeric contraction measured over time.

The test system is the same in assay [2]. Kind of assay: Calcium transient amplitude in isolated cardiomyocytes. The assay is classed as cell-based. Particulars: FIG. 1E, ANOVA P=0.72.
For assay [3], the system named is SIV/17E-Fr and SIV/DeltaB670. Kind of assay: SIV-infected rhesus macaques: survival, CD4+ cell count and viral loads. The assay is classed as in vivo. The text has this:
Twenty-two adult rhesus macaques (mean age=11 years) pre-screened for SIV, STLV-1, and simian type D retrovirus were inoculated intravenously with the macrophagetropic clone SIV/17E-Fr and the immunosuppressive swarm SIV/DeltaB670 (FIG. 3). Age-matched adult rhesus macaques (mean age=11 years) were inoculated with media alone as controls. […] At euthanasia, all animals were perfused with saline to remove blood from the systemic vasculature. Hearts were immediately harvested and samples were immersion fixed in Streck Tissue Fixative (Streck, Omaha, Nebr.) or flash frozen.

In assay [4] the test system is CD68+ macrophages and CD163 expression in the myocardium. Description: Immunostaining for macrophage markers CD68 and CD163 in myocardium. The assay is classed as in vivo, rhesus macaques. Particulars: SIV-infected macaques, FIG. 8. The source says:
To characterize the mononuclear cell populations in myocardium, sections were immunostained for the macrophage marker CD68 and measured by quantitative image analysis. In uninfected animals, CD68+ immunostaining localized to single, round cells located diffusely throughout the myocardium with increased numbers around vessels, consistent with resident macrophages. In SIV-infected animals, CD68+macrophages in perivascular areas were more prominent, likely reflecting recruited, infiltrating macrophages. […] Myocardium was also immunostained for the macrophage marker CD 163. […] In control animals, spindle shaped CD163+ cells were present diffusely throughout the myocardium occasionally forming small clusters. In SIV-infected macaques, cells were similarly spindle shaped to stellate with more extensive cellular processes. […] Myocardial CD163 immunostaining was highly correlated with CD68 immunostaining.

Assay [5] deals with SIV/17E-Fr and SIV/DeltaB670. Kind of assay: SIV RNA levels in plasma, CSF, spleen and brain by qRT-PCR. The assay is classed as in vivo, rhesus macaques. To be noted: 200 mg PO BID from day 24 to day 180 post-inoculation. The protocol: (§1) To determine whether the CCR5 antagonist maraviroc altered CNS disease progression, SIV-infected animals from were treated with maraviroc and CNS outcomes were compared with untreated SIV-infected animals. Specifically, six rhesus macaques were inoculated with SIV/17E-Fr and SIV/DeltaB670 and treated with maraviroc (200 mg PO BID) beginning 24 days post-inoculation until the study endpoint 180 days postinoculation, 22 SIV-infected animals served as untreated, SIV-infected controls, and 8 additional animals served as untreated, uninfected controls (Example 2). Maraviroc levels in plasma and CSF were measured using liquid chromatography tandem mass spectrometry. SIV RNA levels in plasma, CSF, spleen, and brain were measured by qRT-PCR. Immunostaining for CD68 and amyloid precursor protein (APP) in the brain was measured by digital image analysis. Group comparisons were performed by the Mann-Whitney test.
For orientation: Real-time PCR tracks product formation cycle by cycle.

For assay [6], the system named is CD68 and amyloid precursor protein (APP) in the brain. Kind of assay: Immunostaining for CD68 and amyloid precursor protein (APP) in the brain. The assay is classed as in vivo, rhesus macaques. Particulars: 200 mg PO BID. The protocol:
as §1

In a further assay the test system is SIV-infected macaques. To be noted: echocardiography, FIG. 7.
The mark [7] stands for this setting: SIV-infected macaques, 40 mg/kg orally twice per day.
The mark [8] stands for this setting: versus untreated SIV-infected macaques.

For the molecule “4,4-difluoro-N-{(1S)-3-[exo-3-(3-isopropyl-5-methyl-4H-1,2,4-triazol-4-yl)-8-azabicyclo[3.2.1]oct-8-yl]-1-phenylpropyl}cyclohexanecarboxamide [maraviroc]”, in assay [1] (addition after CCL5, FIG. 1A-1C), the “effect on the induced reduction in sarcomeric contraction” value is recorded as “reversed”. Further, the “difference in shortening between baseline and treatment” value in assay [1] (after CCL5, P=0.72) is given as “no significant difference”. The “effect on the CCL5-induced decrease in sarcomeric shortening” value in assay [1] (subsequent addition in the same cells, FIG. 1D) was “modulated the CCL5 effect towards basal contraction”. Further, the calcium transient amplitude result in assay [2] (RANTES+MVC treatment) is recorded as “not altered”. In addition, the “outcomes (CSF, plasma, spleen, heart viral load) versus rapid (RP) and long term progression (LTP) groups” value in assay [3] (FIG. 6, LTP over 180 days post-SIV inoculation) is “improves outcomes in both RP and LTP groups”. Further, in assay [3] (setting [7]), the “CD4+ cell counts” value is “increased”, the “survival relative to the untreated cohort” value is “significantly increased”, the “viral load in CSF” value is reported as “reduced” and the “viral load in heart” value is reported as “reduced”. Further, in assay [3] (setting [7]), the “viral load in plasma” value is on record as “reduced” and the “viral load in spleen” value is reported as “reduced”. Further, in assay [4], the “CD68+ macrophage level in myocardium” value is given as “do not change”; the “CD163 expression by macrophages in myocardium” value is “lowered to levels present in uninfected and untreated subjects”. In assay [5], the “SIV RNA levels in spleen” value is listed as “reduced” and the plasma viral load result is listed as “reduced”. In addition, in assay [5] (setting [8]), the “SIV RNA levels in CSF” value is reported as “significantly lower” and the “SIV RNA levels in brain” value was “significantly lower”. In assay [6] (P<0.001, FIG. 10), the “CNS macrophage activation represented by CD68 immunostaining” value was “lowered”. Besides, the “axonal APP immunostaining” value in assay [6] (P=0.003, FIG. 10) was “lowered”. In addition, in the assay on SIV-infected macaques, the “mitral inflow parameters consistent with diastolic dysfunction with impaired relaxation” value was “significantly ameliorated”.

B1: CCL5: specific chemokine ligand that can bind to CCR5 and initiate signaling pathways (protein, UniProt P13501 24-91, looked up)
C-C motif chemokine 5: SPYSSDTTPCCFAYIARPLPRAHIKEYFYTSGKCSNPAVVFVTRKNRQVCANPEKKWVREYINSLEMS
For the molecule B1, the sarcomeric shortening entry in assay [1] (14 VCM, mean of 20 contraction cycles/cell at steady state, FIG. 1D, p<0.001) is “significantly decreased”. In addition, the “mean % decline in contraction from baseline contraction length” value in assay [1] (isolated macaque cardiomyocytes, FIG. 1C, P=0.009) is 22%. Further, the calcium transient amplitude entry in assay [2] (RANTES treatment) is “not altered”.
